PubChem BioAssay (NCI)
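Where inhibition never reached the appropriate level, the endpoint shown equals the highest concentration tested. Otherwise, values were interpolated linearly from a five-concentration, 48-hour dose response in 96-well plates. Definition used: TGI = concentration required for complete inhibition of growth.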

Columns and labels:
Assay in all cases: NCI anticancer screen, dose series, 48 h
XF 498 CNS = system: XF 498 CNS
LXFL 529 NSCLC = system: LXFL 529 NSCLC
SNB-78 CNS = system: SNB-78 CNS
HOP-18 NSCLC = system: HOP-18 NSCLC
DMS 273 small cell lung = system: DMS 273 small cell lung
RXF-631 renal = system: RXF-631 renal
MDA-N = system: MDA-N

| Compound | TGI (XF 498 CNS) [µM] | TGI (LXFL 529 NSCLC) [µM] | TGI (SNB-78 CNS) [µM] | TGI (HOP-18 NSCLC) [µM] | TGI (DMS 273 small cell lung) [µM] | TGI (RXF-631 renal) [µM] | TGI (MDA-N) [µM] |
| --- | --- | --- | --- | --- | --- | --- | --- |
| NCCCCCCNCc1cccc2ccccc12 | > 100 | > 100 | > 100 | > 100 |  |  |  |
| COC1OC(C)C2OC(C)(C)OC2C1OC(C)=O (stereo not given) | > 100 | > 100 | > 100 | > 100 | > 100 | > 100 |  |
| CC12CCC3c4cc(Br)c(O)c(Br)c4CCC3C1CCC2O (stereo not given) |  |  |  |  |  |  | 14.2 |
| Cc1ccc(C)c(NC(=O)CC2SC(=Nc3ccccc3Cl)NC2=O)c1 (stereo not given) | > 100 | > 100 | > 100 | > 100 | > 100 | > 100 |  |
| C=CCOC(=O)C1CCC(=O)N1C(=O)C(Cl)Cl (stereo not given) | 33.2 | > 100 | > 100 | > 100 | > 100 |  |  |
| COc1cc2c(cc1C1=NC(C)(C)CO1)OCO2 | > 100 | > 100 |  | > 100 |  | > 100 |  |
| CN(C)CCNC(=O)c1cccc2ccc(-c3ccc(-c4ccccc4)cc3)nc12 |  | 3.39 | 28.3 | 26.4 | 3.24 | 3.99 |  |
| CCn1c2c(c3ccccc31)C(c1ccccc1)CC1C(=O)N(c3ccccc3)C(=O)C21 (stereo not given) | 37.2 | > 100 | > 100 |  | > 100 |  |  |
| CCCCCCCCCCCCCC(=O)CSCCNC(=O)CCNC(=O)[C@@H](O)C(C)(C)COP(=O)(O)OP(=O)(O)OCC1OC(n2cnc3c(N)ncnc32)C(O)C1OP(=O)(O)O (stereo not given in full) | 34.3 | 32.5 | 36.5 | 31.7 | 26.2 |  |  |
| CCOC(=O)C(CNc1ccc(O)cc1)NC(=O)c1ccccc1 (stereo not given) | > 100 | > 100 | > 100 | > 100 | > 100 |  |  |
| CC(C)(C)OC(=O)c1cccnc1/C=N/O | > 100 | > 100 | > 100 | > 100 | > 100 | > 100 |  |
| C[C@]12CCNC(=O)C=C1CC[C@@H]1C2CC[C@@]2(C)C1CC[C@@H]2OC(=O)COc1ccc(N(CCCl)CCCl)cc1 (stereo not given in full) | 4.89 | 21.8 | > 70 | 47.7 | 12.2 | > 88.8 | 29 |
| C#CC1(O)CCC2[C@@H]3CCc4cc(Oc5nc(F)nc(-c6c7ccccc7cn6C)n5)ccc4C3CC[C@@]21C (stereo not given in full) | > 100 | > 100 | > 100 | > 100 | > 100 |  |  |
| Cn1c(=O)c2[nH]cnc2n(CC(N)=O)c1=O | > 100 | > 100 | > 100 |  | > 100 |  |  |
| CCN(CC)CCn1[nH]c2c3ccc(=O)cc3sc3c(NCCN)ccc1c32 | 0.974 | 1.77 | 4.49 | 13.6 |  |  |  |
| CC(=O)OC1CC[C@@]2(C)C(CC[C@]3(C)C2CC=C2[C@@H]4C(C)[C@H](C)CCC4(C)CCC23C)[C@@]1(C)C(=O)O (stereo not given in full) | 36.1 | 39.4 | 65.6 | 28.8 | 46.8 | 68.6 | 42.3 |
| CC(=O)N(O)Cc1ccccc1 | > 100 | > 100 | > 100 |  |  | > 100 |  |
| Cc1cccc(NC(=O)/C=C/c2ccc([N+](=O)[O-])cc2)c1 |  |  |  |  |  |  | > 52.2 |
| S=C=NCCc1ccccc1 | 5.35 | 0.774 | 5.78 |  | 1.1 |  |  |

| Compound | TGI (XF 498 CNS) [µM] | TGI (LXFL 529 NSCLC) [µM] | TGI (SNB-78 CNS) [µM] | TGI (HOP-18 NSCLC) [µM] | TGI (DMS 273 small cell lung) [µM] | TGI (RXF-631 renal) [µM] | TGI (MDA-N) [µM] |
| --- | --- | --- | --- | --- | --- | --- | --- |
| N#Cc1ccc2cc3c(cc2c1)OCO3 |  | > 100 | > 100 |  | > 100 | > 100 |  |
| Cn1c(=S)c2[nH]c(SCCN3C(=O)c4ccccc4C3=O)nc2n(C)c1=O |  |  |  |  |  |  | > 100 |
| C#CCN(C(=O)C(F)(F)F)c1ccc(C(=O)c2ccc(N(CC#C)C(=O)C(F)(F)F)cc2)cc1 |  | > 100 | > 100 |  | 63.9 |  |  |
| COc1cccc2c1C(=O)OC2c1cccc2ccccc12 (stereo not given) | > 100 | > 100 | > 100 | > 100 | > 100 |  | > 100 |
| C=C(C)C(=O)O[C@@H]1C/C(C)=C\[C@H](OC(C)=O)C[C@](C)(O)/C=C2/OC(=O)C(COC(C)=O)=C21 |  |  |  |  |  |  | 1.98 |
| O=c1[nH]c(=O)n(C2CC(O)C(CO)O2)cc1C#Cc1ccc(F)cc1 (stereo not given) | > 100 | > 100 | > 100 | > 100 | > 100 |  |  |
| COC(=O)/C=c1\s/c(=C\C(=O)OC)c2ccccc12 |  | > 100 | > 100 | > 100 | > 100 | > 100 |  |
| Nc1nc(N)c2cc(Sc3cccc(C(F)(F)F)c3)ccc2n1 |  |  |  |  |  |  | 13.9 |
| O=C1c2ccccc2C(=O)c2c(NCC3CO3)ccc(NCC3CO3)c21 (stereo not given) |  |  |  |  |  |  | 2.52 |
| Clc1ccccc1C(Nc1ncccn1)Nc1ncccn1 |  |  |  |  |  |  | > 100 |
| CCOC(=O)/C(=C/c1ccc(N(CCC#N)CCC#N)cc1C)NC(=O)/C=C/c1ccccc1 | > 100 | > 100 | > 100 |  | > 100 |  |  |
| Cc1cc(=O)[nH]c(CNC(=O)c2cccc(C(=O)NCc3cc(=O)[nH]c(C)n3)c2)n1 |  | > 100 | > 100 | > 100 | > 100 |  |  |
| Oc1[nH]c2ccccc2c1N=Nc1c(F)c(F)c(F)c(F)c1F |  |  |  |  |  |  | > 100 |
| CCOC(=O)C1([Se]c2ccccc2)CCCC1=O (stereo not given) | 36.9 | 34.2 | 54.9 | 59.7 | 28.5 | > 100 |  |
| O=C1c2ccccc2C(=O)c2sc(Nc3ccccc3Cl)nc21 | 30.2 | 5.56 | 40.8 | 27.2 | 31.9 | 40.6 | 6.13 |
| O=C1C2C3C=C4c5ccccc5N(c5ccccc5)C4(C2C(=O)N1c1ccc(Br)cc1)[C@H]1C(=O)N(c2ccc(Br)cc2)C(=O)[C@@H]31 (stereo not given in full) | > 100 | > 100 | > 100 | > 100 | > 100 |  |  |
| Cc1nc2sccn2c1C(=O)NC(=O)Nc1ccc(Cl)cc1 | 69.2 | > 100 | > 100 |  | > 100 |  |  |
| CC[N+](C)(CC)CC(C)(C)C(=O)/C=C/c1ccc(/C=C/C(=O)C(C)(C)C[N+](C)(CC)CC)cc1 |  | > 100 | > 100 |  | > 100 | > 100 |  |
| COC1C2c3cc4c(cc3CC(C#N)(c3ccccc32)N1C(=O)c1ccccc1)OCO4 (stereo not given) | > 100 | > 100 | > 100 | > 100 | > 100 | > 100 |  |
